Test [1] addresses Serine/threonine-protein kinase Nek7 (Homo sapiens) (UniProt Q8TDX7). The experiment in a line: Inhibition of NEK7 (unknown origin) assessed as remaining activity at 1 uM by Kinome scan method relative to control.
Test [2] addresses Homeodomain-interacting protein kinase 3 (Homo sapiens) (UniProt Q9H422). The test is described as follows: Inhibition of human HIPK3 assessed as residual activity at 1 uM using RBER-CHKtide as substrate in presence of 33P-ATP by ProQinase assay relative to control.
Test [3] has as its target Interleukin-1 receptor-associated kinase 4 (Homo sapiens) (UniProt Q9NWZ3). The test is described as follows: Inhibition of human IRAK4 assessed as residual activity at 1 uM using RB-CTF as substrate in presence of 33P-ATP by ProQinase assay relative to control.
Test [4] deals with Calcium/calmodulin-dependent protein kinase type 1D (Homo sapiens) (UniProt Q8IU85). The test is described as follows: Inhibition of human CAMK1D assessed as residual activity at 1 uM using RBER-CHKtide as substrate in presence of 33P-ATP by ProQinase assay relative to control.
The target in test [5] is Mitogen-activated protein kinase kinase kinase 20 (Homo sapiens) (UniProt Q9NYL2). The test is described as follows: Inhibition of human ZAK assessed as residual activity at 1 uM using MBP as substrate in presence of 33P-ATP by ProQinase assay relative to control.
The target in test [6] is Mitogen-activated protein kinase kinase kinase 11 (Homo sapiens) (UniProt Q16584). The experiment in a line: Inhibition of MLK3 (unknown origin) assessed as remaining activity at 1 uM by Kinome scan method relative to control.
The target in test [7] is Phosphorylase b kinase gamma catalytic chain, skeletal muscle/heart isoform (Homo sapiens) (UniProt Q16816). The test is described as follows: Inhibition of human PHKG1 assessed as residual activity at 1 uM using 3xChocktide-PKC as substrate in presence of 33P-ATP by ProQinase assay relative to control.
The test system of test [8] is Mast/stem cell growth factor receptor Kit (Homo sapiens), P10721 [V559D]. The experiment in a line: Inhibition of KIT V559D mutant (unknown origin) assessed as remaining activity at 1 uM by Kinome scan method relative to control.
The target of test [9] is Tyrosine-protein kinase Fyn (Homo sapiens) (UniProt P06241). The experiment in a line: Inhibition of FYN (unknown origin) assessed as remaining activity at 1 uM by Kinome scan method relative to control.
The target in test [10] is Mitogen-activated protein kinase kinase kinase 5 (Homo sapiens) (UniProt Q99683). The experiment in a line: Inhibition of ASK1 (unknown origin) assessed as remaining activity at 1 uM by Kinome scan method relative to control.
Test [11] addresses Casein kinase II subunit alpha' (Homo sapiens) (UniProt P19784). The experiment in a line: Inhibition of human CK2alpha2 assessed as residual activity at 1 uM using casein as substrate in presence of 33P-ATP by ProQinase assay relative to control.
The next test is filed under the species Homo sapiens. The test is described as follows: Inhibition of human PKA assessed as residual activity at 1 uM using bio-4xCHKT as substrate in presence of 33P-ATP by ProQinase assay relative to control.
For test [12], the target named is RAC-alpha serine/threonine-protein kinase (Homo sapiens) (UniProt P31749). The test is described as follows: Inhibition of human AKT1 assessed as residual activity at 1 uM using RBER-GSK3(14-27) as substrate in presence of 33P-ATP by ProQinase assay relative to control.
Test [13] deals with Calcium/calmodulin-dependent protein kinase type II subunit beta (Homo sapiens) (UniProt Q13554). The experiment in a line: Inhibition of CAMK2B (unknown origin) assessed as remaining activity at 1 uM by Kinome scan method relative to control.
In test [14] the target is T1, Serine/threonine-protein kinase D1 (Homo sapiens) (UniProt Q15139).
T1 sequence (whole entry): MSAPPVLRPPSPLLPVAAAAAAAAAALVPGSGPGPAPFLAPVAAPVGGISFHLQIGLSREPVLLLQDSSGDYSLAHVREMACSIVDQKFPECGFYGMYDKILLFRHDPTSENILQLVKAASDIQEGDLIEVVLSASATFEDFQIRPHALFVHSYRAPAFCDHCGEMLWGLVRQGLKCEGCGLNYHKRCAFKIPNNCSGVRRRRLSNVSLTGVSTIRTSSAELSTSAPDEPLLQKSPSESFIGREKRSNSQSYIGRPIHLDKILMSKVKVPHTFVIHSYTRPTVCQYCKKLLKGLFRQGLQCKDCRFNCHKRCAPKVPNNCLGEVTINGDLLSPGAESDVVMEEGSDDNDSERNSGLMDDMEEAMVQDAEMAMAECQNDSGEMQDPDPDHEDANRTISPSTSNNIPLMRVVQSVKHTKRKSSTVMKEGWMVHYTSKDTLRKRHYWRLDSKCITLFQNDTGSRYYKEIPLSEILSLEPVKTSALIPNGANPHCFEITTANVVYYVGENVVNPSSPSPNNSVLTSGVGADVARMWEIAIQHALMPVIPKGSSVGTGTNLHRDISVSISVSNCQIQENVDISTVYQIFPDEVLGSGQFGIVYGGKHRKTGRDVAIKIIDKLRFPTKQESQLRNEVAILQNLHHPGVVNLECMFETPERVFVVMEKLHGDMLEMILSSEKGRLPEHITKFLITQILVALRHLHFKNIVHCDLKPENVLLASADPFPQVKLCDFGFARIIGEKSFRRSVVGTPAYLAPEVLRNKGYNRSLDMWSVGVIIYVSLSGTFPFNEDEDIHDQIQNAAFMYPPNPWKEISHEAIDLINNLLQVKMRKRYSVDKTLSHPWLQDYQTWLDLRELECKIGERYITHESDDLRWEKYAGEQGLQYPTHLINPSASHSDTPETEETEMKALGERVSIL
The test is described as follows: Inhibition of human PKCmu assessed as residual activity at 1 uM using RBER-CHKtide as substrate in presence of 33P-ATP by ProQinase assay relative to control.

Test [15] concerns the target Mitogen-activated protein kinase kinase kinase 3 (Homo sapiens) (UniProt Q99759). The test is described as follows: Inhibition of human MEKK3 assessed as residual activity at 1 uM using casein as substrate in presence of 33P-ATP by ProQinase assay relative to control.
Test [16] concerns Tyrosine-protein kinase ABL1 (Homo sapiens), P00519 [Y253F]. The experiment in a line: Inhibition of human ABL1 Y253F mutant assessed as residual activity at 1 uM using Poly(Ala,Glu,Lys,Tyr)6:2:5:1 as substrate in presence of 33P-ATP by ProQinase assay relative to control.
The target of test [17] is Tyrosine-protein kinase Yes (Homo sapiens) (UniProt P07947). The experiment in a line: Inhibition of human YES assessed as residual activity at 1 uM using polyEY as substrate in presence of 33P-ATP by ProQinase assay relative to control.
The target in test [18] is Insulin-like growth factor 1 receptor (Homo sapiens) (UniProt P08069). The experiment in a line: Inhibition of human IGF1R assessed as residual activity at 1 uM using polyEY as substrate in presence of 33P-ATP by ProQinase assay relative to control.
Sequence of Insulin-like growth factor 1 receptor (Homo sapiens) (P08069 31-736 limits assumed): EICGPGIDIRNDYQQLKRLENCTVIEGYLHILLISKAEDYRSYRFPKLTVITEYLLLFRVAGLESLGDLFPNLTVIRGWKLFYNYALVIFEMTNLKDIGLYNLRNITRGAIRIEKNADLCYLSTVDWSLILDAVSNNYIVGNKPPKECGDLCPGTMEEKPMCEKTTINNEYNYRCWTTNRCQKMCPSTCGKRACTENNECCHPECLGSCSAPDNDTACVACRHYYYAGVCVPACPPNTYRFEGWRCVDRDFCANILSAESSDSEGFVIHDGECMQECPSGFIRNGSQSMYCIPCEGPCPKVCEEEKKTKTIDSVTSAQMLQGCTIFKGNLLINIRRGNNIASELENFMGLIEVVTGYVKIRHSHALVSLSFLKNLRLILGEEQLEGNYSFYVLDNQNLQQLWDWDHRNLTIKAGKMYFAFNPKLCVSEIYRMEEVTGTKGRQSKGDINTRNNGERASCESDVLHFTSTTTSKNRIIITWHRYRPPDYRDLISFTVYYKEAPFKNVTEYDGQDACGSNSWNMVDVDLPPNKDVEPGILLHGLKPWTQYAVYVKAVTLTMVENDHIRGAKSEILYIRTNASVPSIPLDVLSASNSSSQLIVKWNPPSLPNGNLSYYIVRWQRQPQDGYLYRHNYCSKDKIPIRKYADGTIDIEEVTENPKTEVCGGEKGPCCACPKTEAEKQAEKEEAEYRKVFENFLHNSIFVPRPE
Sequence of Insulin-like growth factor 1 receptor (Homo sapiens) (P08069 741-1367 limits assumed): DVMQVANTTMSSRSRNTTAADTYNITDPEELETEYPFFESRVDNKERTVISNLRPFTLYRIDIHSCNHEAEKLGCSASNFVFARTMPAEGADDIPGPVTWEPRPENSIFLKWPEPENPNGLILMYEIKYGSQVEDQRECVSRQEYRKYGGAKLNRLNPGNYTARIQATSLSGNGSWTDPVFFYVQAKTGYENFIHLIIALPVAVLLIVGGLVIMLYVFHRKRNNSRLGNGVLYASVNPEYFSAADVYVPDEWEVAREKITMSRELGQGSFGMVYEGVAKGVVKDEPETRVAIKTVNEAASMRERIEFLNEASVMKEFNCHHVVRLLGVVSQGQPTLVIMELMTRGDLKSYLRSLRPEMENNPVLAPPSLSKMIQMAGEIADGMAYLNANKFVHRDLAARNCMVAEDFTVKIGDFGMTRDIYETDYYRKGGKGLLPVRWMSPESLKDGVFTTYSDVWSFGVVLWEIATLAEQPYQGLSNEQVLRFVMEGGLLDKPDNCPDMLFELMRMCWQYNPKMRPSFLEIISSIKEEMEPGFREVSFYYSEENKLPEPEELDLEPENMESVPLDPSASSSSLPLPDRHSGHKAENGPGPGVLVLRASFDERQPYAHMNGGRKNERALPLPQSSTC

Sequence of Tyrosine-protein kinase Yes (Homo sapiens) (P07947 2-543 limits assumed): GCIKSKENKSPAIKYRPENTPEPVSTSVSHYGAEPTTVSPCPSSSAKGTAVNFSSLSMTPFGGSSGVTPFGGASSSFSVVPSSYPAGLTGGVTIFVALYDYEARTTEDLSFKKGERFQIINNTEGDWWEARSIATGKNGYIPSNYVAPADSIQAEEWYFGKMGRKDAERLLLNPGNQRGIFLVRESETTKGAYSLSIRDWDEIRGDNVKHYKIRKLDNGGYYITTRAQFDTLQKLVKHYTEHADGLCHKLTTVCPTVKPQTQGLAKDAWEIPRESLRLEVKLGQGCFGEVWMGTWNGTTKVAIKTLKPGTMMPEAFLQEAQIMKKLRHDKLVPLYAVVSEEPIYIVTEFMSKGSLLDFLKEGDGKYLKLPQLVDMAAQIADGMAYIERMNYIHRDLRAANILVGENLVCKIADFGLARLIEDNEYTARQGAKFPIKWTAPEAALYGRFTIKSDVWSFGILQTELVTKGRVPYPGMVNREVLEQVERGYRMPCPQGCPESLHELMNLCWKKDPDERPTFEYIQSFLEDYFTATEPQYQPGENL
Sequence of Mitogen-activated protein kinase kinase kinase 3 (Homo sapiens) (Q99759 whole entry): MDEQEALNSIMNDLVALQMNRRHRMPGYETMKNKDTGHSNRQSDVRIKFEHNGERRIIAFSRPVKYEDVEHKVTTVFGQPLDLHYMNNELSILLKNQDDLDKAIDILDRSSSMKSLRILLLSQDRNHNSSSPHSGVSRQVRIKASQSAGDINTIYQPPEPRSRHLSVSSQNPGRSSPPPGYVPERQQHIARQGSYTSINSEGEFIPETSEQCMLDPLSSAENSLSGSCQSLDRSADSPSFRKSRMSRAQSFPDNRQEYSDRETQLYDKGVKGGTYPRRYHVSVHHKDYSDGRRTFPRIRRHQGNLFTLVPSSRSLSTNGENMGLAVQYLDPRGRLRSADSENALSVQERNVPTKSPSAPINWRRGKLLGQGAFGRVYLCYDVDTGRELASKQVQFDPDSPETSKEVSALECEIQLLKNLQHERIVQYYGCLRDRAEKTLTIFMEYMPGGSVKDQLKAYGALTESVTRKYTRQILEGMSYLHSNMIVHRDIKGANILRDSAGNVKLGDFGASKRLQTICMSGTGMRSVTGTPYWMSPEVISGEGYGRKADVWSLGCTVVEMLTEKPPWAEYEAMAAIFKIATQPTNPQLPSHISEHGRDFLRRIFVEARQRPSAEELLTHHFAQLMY
Sequence of Mitogen-activated protein kinase kinase kinase 11 (Homo sapiens) (Q16584 whole entry, looked up, canonical isoform): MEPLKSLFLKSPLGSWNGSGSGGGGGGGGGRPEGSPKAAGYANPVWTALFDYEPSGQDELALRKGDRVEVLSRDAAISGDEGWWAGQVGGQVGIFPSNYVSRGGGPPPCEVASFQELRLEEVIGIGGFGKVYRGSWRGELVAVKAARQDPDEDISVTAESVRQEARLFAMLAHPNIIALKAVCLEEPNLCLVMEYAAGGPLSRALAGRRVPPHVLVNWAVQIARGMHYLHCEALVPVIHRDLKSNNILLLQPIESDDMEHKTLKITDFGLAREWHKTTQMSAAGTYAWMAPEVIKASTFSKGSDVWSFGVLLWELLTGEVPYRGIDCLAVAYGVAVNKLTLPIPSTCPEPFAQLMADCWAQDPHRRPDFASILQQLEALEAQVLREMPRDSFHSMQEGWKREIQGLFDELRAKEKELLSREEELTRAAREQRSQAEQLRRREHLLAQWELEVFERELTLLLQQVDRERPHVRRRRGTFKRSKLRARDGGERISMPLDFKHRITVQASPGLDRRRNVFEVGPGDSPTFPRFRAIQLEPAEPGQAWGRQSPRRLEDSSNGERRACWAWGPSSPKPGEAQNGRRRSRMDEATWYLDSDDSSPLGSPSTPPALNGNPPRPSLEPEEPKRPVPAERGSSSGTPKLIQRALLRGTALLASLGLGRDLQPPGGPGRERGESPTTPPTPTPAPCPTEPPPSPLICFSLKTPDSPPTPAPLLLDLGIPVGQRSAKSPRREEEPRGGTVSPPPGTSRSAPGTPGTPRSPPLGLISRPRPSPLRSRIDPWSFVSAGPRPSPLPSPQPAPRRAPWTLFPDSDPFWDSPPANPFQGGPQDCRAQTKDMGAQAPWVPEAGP
Sequence of Interleukin-1 receptor-associated kinase 4 (Homo sapiens) (Q9NWZ3 whole entry): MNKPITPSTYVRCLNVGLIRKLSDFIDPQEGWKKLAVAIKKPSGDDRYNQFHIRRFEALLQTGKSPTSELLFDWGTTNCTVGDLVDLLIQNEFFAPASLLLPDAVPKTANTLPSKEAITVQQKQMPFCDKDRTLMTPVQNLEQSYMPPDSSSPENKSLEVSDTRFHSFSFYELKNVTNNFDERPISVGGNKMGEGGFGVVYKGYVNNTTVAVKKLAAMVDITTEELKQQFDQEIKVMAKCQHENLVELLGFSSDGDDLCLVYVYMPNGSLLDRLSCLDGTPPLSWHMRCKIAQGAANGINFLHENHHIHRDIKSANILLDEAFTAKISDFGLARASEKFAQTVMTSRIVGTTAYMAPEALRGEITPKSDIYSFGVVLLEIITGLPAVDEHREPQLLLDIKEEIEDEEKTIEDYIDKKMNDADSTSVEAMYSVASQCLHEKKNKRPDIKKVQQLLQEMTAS
Sequence of Mitogen-activated protein kinase kinase kinase 20 (Homo sapiens) (Q9NYL2 2-800 limits assumed): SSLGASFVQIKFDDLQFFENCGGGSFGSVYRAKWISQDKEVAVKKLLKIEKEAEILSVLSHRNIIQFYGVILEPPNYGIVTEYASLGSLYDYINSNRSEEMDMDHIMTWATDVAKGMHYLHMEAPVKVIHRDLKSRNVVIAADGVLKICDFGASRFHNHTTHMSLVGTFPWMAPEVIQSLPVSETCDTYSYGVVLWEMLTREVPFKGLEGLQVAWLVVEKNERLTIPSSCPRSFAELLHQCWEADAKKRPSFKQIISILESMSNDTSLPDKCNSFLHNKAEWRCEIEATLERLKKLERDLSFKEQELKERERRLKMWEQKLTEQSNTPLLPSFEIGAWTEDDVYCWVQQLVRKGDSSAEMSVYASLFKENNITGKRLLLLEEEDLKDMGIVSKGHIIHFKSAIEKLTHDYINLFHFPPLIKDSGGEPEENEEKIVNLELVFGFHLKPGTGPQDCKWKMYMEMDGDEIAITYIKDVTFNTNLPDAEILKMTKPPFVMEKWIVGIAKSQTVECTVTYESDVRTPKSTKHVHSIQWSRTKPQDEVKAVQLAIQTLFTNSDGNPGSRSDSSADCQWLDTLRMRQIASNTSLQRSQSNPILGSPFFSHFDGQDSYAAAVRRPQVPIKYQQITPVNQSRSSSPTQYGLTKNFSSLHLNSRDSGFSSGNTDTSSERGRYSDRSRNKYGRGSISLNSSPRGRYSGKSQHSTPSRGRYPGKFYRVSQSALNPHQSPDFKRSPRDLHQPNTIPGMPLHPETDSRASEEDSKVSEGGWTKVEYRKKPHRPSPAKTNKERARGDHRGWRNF
Sequence of Casein kinase II subunit alpha' (Homo sapiens) (P19784 whole entry, looked up): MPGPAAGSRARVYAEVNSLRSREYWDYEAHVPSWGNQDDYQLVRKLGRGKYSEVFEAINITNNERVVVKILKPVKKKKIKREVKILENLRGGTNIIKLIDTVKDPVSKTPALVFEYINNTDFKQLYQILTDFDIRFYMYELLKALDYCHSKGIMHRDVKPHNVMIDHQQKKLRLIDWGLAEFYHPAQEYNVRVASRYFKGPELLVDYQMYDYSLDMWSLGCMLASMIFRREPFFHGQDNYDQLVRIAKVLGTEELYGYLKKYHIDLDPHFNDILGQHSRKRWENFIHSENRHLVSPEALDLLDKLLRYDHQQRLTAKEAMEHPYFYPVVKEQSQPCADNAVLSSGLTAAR

Consider `O=C1c2ccc(Nc3ccc(F)cc3F)cc2CCc2ccc(OC[C@H](O)CO)cc21` [Skepinone-L], for which the Activity in [1] is 96%; in [2] it was 91%; in [3] it was 104%; in test [4], 106%; in test [5], 98%; in test [6], 96%. Moreover, the Activity in [7] amounted to 93%; in test [8], 100%; in [9], 98%; in [10], 93%; in test [11], 87%; in the test listed under Homo sapiens, 94%. Moreover, the Activity in test [12] stood at 102%; in test [13] it was 100%; in [14] it was 92%; in test [15], 96%; in test [16], 88%; in [17] it was 119%. Further, in [18], the Activity was determined as 98%.

For the origin of these results see ChEMBL document CHEMBL5696441 (Nat Chem Biol, 2011).
